Results as given in patent US20080308744A1 (Beth Israel Deaconess Medical Center, priority 2003, published 2008).

Key:
[1] = Fluorescence spectrometry: relative fluorescent yield of 800 nm contrast agents; type: physicochemical
Procedure: The performance of these agents in rat and pig model systems of SLN mapping for the skin, gastrointestinal tract and lung were also quantitated.
All of the samples were diluted with PBS, pH7.8, or with 100% FBS according to absorbance at λmax using 1-cm path length quartz spectrometer cell, and excited at 770 nm. Fluorescence was measured by calculating the area under the curve of the intensity from 785 nm to 950 nm subtracting the fluorescence of control PBS, pH 7.8.

[2] = Quantum yield measurements; type: physicochemical; conditions: compared to QD
[3] = in DMSO; cited from earlier work
[4] = Behaviour of the free dye in blood (description); conditions: small molecule form

CC1(C)C(/C=C/C2=C(Oc3ccc(S(=O)(=O)O)cc3)C(=C/C=C3/N(CCCCS(=O)(=O)O)c4ccc(S(=O)(=O)[O-])cc4C3(C)C)/CCC2)=[N+](CCCCCC(=O)O)c2ccc(S(=O)(=O)O)cc21 [800CW]
relative per molecule fluorescent yield to QDs ([1]; in 100% fetal bovine serum): 1.0 | relative per molecule fluorescent yield to QDs ([1]; in phosphate-buffered saline): 0.4 | quantum yield ([2]; in FBS): rather higher | quantum yield ([2]; in PBS): same as that of QD

CC1(C)C(/C=C/C=C/C=C/C=C2\N(CCCCS(=O)(=O)O)c3ccc4ccccc4c3C2(C)C)=[N+](CCCCS(=O)(=O)[O-])c2ccc3ccccc3c21 [ICG, indocyanine green]
quantum yield (control) [3]: 13% | in vivo early half-life: shorter half-life | relative per molecule fluorescent yield to QDs ([1]; in 100% fetal bovine serum): 0.4 | relative per molecule fluorescent yield to QDs ([1]; in phosphate-buffered saline): 0.1 | solubility in blood [4]: somewhat less soluble in blood
